In PMC5982655, “Interaction of the New Monofunctional Anticancer Agent Phenanthriplatin With Transporters for Organic Cations” (Frontiers in Chemistry, 2018):

Tests used:
hMATE1 = target: T1, hMATE1 (Homo sapiens, UniProt Q96FL8); assay: Inhibition of ASP+ uptake in HEK 293 cells expressing hMATE1; type: cell-based; conditions: HEK 293 hMATE1, 10 μM ASP+
T1 construct: expressed in transfected cells
T1 sequence (Q96FL8 1-570): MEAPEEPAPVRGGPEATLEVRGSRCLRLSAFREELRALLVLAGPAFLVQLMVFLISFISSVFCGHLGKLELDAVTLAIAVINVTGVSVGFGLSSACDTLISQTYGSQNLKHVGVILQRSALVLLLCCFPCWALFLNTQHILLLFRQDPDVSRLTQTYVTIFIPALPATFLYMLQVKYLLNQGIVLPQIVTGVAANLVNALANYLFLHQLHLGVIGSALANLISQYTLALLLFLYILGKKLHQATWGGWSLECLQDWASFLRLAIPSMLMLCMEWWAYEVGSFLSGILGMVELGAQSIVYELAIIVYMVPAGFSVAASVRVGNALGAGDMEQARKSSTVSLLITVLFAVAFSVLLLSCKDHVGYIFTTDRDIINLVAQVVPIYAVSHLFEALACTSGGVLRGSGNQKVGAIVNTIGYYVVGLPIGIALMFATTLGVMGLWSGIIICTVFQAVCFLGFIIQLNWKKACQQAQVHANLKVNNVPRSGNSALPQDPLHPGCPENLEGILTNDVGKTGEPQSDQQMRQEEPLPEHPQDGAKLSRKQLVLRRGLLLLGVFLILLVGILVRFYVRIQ
Procedure: (§1) The interaction of phenanthriplatin with transporters for organic cations (OCT1-3, MATE1, and MATE2K) was investigated by measuring its effects on the uptake of the fluorescent organic cation 4-(4-dimethylamino)styryl-N-methylpyridinium (ASP^+). Microfluorometric measurements of ASP^+ uptake were performed with a fluorescence plate reader (Infinity 200, Tecan, Crailsheim, Germany; excitation at 465 nm, emission at 590 nm) as described previously for cultured HEK 293 cells (Wilde et al., [2009]). Before measurements, the culture medium in the wells of the 96 well microtiter plate containing HEK 293 cells was replaced by a HCO3- -free Ringer-like solution containing (in mM) NaCl 145, K2HPO4 1.6, KH2PO4 0.4, D-glucose 5, MgCl2 1, calcium gluconate 1.3, and pH adjusted to 7.4. Fluorescence was measured dynamically at 37°C in each well before and after ASP^+ addition to HCO3- -free Ringer-like solution, alone or together with increasing phenanthriplatin concentrations, and plotted versus time. ASP^+ (final concentration 1 or 10 μM for experiments with OCTs or MATEs, respectively) was added after the third sampling interval. Emission from the complete area of the well bottom was analyzed four times and averaged for each well. […] Background fluorescence was measured for each plate in wells with identical solutions containing no cells and subtracted from each well containing cells. Experiments were performed with cells from one passage of the same day with controls and test replicates in the same plate.
Data are presented as mean values ± SEM, with (n) referring to the number of wells. IC50 values defined as the concentration of platinum agent required to inhibit uptake of ASP^+ by 50% and EC50 values used to assess cell viability were obtained by sigmoidal concentration-response curve fitting using GraphPad Prism, Version 5.3 (GraphPad Software, San Diego, USA). […] For multiple comparisons, ANOVA with Bonferroni post-test was used. A P-value < 0.05 was considered statistically significant.

Ctr1^+/+ MEFs = assay: MTT cell viability, Ctr1+/+ MEFs; type: cell-based, mouse
Procedure: A modified 3-(4,5-dimethylthiazol-2-yl)-2,5-diphenyltetrazolium bromide (MTT) assay (Mosmann, [1983]) was used to test the chemosensitivity of cells to phenanthriplatin and, in some experiments, to cisplatin by determining the glycolysis rate via the reduction of the yellow tetrazolium salt MTT to a purple formazan dye, as previously described (Wehe et al., [2014]). Briefly, after growing for 24 h in the incubator, cells expressing or not hOCT2, hMATE1, hMATE2 or Ctr1 were treated for 10 min with platinum derivatives. Control cells were incubated with drug-free complete cell culture medium. Afterwards, the medium was carefully removed and replaced by 200 μL of fresh complete cell culture medium. After incubation for another 24 h, 10 μL of MTT solution containing 5 mg/mL of the dye were added to each well, and the cells were again incubated for 3 h. The medium was then removed and 100 μL of lysis buffer containing 10% (w/v) sodium dodecyl sulfate and 40% (v/v) dimethylformamide was added to each well. The plates were shaken for 10 min to destroy the cell structure and dissolve the blue formazan dye (Furchert et al., [2007]; Wehe et al., [2014]). Finally, the absorbance was measured at 590 nm using an automated microtiter plate reader (Infinite M200; Tecan, Männedorf, Switzerland). The percentage of viable cells in the untreated controls was compared to that for the various treatments. Experiments carried out with DAOY and UW228 cells followed a similar protocol except that these cells were incubated for 24 h with phenanthriplatin.

mOCT1 = target: T2, mOCT1 (Mus musculus, UniProt O08966); assay: Inhibition of ASP+ uptake in HEK 293 cells expressing mOCT1; type: cell-based, murine; conditions: HEK 293 mOCT1, 1 μM ASP+
T2 construct: expressed in transfected cells
T2 sequence (O08966 1-556): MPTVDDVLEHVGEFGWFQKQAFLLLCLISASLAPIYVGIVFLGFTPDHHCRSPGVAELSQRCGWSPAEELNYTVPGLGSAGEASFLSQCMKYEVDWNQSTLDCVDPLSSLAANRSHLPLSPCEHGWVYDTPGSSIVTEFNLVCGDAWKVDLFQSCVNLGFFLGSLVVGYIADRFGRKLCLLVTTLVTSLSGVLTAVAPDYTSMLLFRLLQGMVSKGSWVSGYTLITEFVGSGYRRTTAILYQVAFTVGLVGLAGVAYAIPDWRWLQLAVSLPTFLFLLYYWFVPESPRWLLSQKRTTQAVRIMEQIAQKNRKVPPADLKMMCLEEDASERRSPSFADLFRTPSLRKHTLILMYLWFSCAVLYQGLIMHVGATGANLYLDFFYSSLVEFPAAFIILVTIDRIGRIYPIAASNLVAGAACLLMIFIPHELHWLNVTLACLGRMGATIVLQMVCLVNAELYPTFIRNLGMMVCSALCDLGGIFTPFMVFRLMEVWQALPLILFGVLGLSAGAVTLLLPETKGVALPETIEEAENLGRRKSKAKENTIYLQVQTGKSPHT
Procedure: as §1, with “Experiments were performed with cells from one passage of the same day with controls and test replicates in the same plate.” left out

## N.N.[Cl][Pt+].c1ccc2c(c1)cnc1ccccc12 [phenanthriplatin, cis-[Pt(NH3)2Cl(phenanthridine)]^+]
hMATE1
  IC50: 101 µM
  logIC50 (logEC50) ± SEM for inhibition of ASP+ uptake: −3.99 ± 0.21
Ctr1^+/+ MEFs; 1 mM, 10 min
  Cell viability (MTT): toxic
Ctr1^+/+ MEFs; lower concentrations (<1 mM)
  Cell viability (MTT): did not change the cell viability
mOCT1
  IC50: 17 µM
  logIC50 (logEC50) ± SEM for inhibition of ASP+ uptake: −4.77 ± 0.22
